# Columns and labels:
# [1] = Stability in mouse blood after intraperitoneal administration (HPLC); type: in vivo, ICR mice; details: for Residual drug within the abdominal cavity: after intraperitoneal administration to mice; for Stability in mouse blood: i.p., equimolar to 20 mg/kg BW TC11, HPLC peaks 0.5-1.5 hours after administration
# Description: First, PEG11(E)-TC11(A) and PEG11(O)-TC11(B) were examined for stability in mouse blood. To 5-week-old male ICR mice (CLEA Japan, Tokyo, Japan), PEG11(E)-TC11 and PEG11(O)-TC11 were administered intraperitoneally at 59.1 mg/kg BW and 54.6 mg/kg BW, respectively, in such a manner that each molar concentration was equivalent to that of 20 mg/kg BW of TC11. At 0, 0.5, 1, 1.5, 4, 8, 12, and 24 hours later, a tail vein was punctured with a 26G needle for bleeding, and then about 100 μL of blood was collected using a heparinized hematocrit capillary tube (Terumo, Tokyo, Japan). After blood collection, blood was transferred into a 0.5-mL tube, and then subjected to centrifugation at 4° C. and 3,400 G for 15 minutes. Subsequently, the supernatant was collected, and then cryopreserved at −80° C. A quality control serum, Consera (registered trademark) (Nissui pharmaceutical, Tokyo, Japan) was dissolved in 3 mL of distilled water (dH2O) per bottle. After left to stand for 30 minutes, bottles were turned upside-down (mixing by inversion) and then used. Consera (190 μL) was mixed with the collected blood plasma and 10 μL of urine, thereby preparing samples. Moreover, PEG11(E)-TC11 and HOEtO-TC11 were each diluted with dH2O in such a manner that the concentrations were 0, 2, 4, 6, 8, and 10 μM, and then 10 μL of the solution at each concentration and 190 μL of Consera were mixed, thereby preparing a calibration curve sample. Sep-Pak (registered trademark) C18 solid phase extraction cartridge (Waters Associates, Massachusetts, USA) was washed with 2 mL of 100% CH3CN, and then equilibrated with 4 mL of dH2O. Each sample and a sample for preparing a calibration curve were added to the cartridge, and then rinsed with 200 μL of dH2O. Subsequently, the resultant was washed with 2 mL of dH2O, 2 mL of 40% CH3CN, and 250 μL of 100% CH3CN, and then eluted with 1 mL of 100% CH3CN. The eluate was evaporated under vacuum using a centrifugal evaporator CVE-2000 (TOKYO […] CO, LTD, Tokyo, Japan), re-dissolution was performed with 100 μL of 100% EtOH, and then filtration was performed using a chromatodisc having a pore size of 0.45 μm (GL sciences, Tokyo, Japan). The high performance liquid chromatography (High Performance Liquid Chromatography; HPLC) apparatuses used herein are the following apparatuses manufactured by JASCO (Tokyo, Japan).
# HPLC analysis was conducted using Inertsil (registered trademark) ODS-3 […]×Φ4.6 mm as a stationary phase, CH3CN:dH2O=50:50 as a mobile phase, a flow rate of 0.70 mL/min, a UV detection wavelength of 267 nm, and an excitation wavelength of 380 nm, a fluorescence wavelength of 530 nm, and an injection amount of 10 μL at a column temperature of 25° C.
# [2] = test system: bone marrow stromal cell-derived normal cells (WT); assay: WST-1 proliferation assay (Example 11), normal cells; type: cell-based; details: WST-1, 48 hours, FIG. 6
# Description: (§1) Proliferation assay of cancer cells and normal cells was performed using WST-1 as follows. One μ1 each of PEG11(E)-TC11 and TC11 prepared at target concentrations was added to each well of a 96-well microplate. Medium was added to the wells at 50 μl per well, and then mixed by tapping lightly the plate. Next, high-risk MM cells (KMS34) prepared at 5×10^5 cells/ml and bone marrow stromal cell-derived normal cells (WT) prepared at 2×10^5 cells/ml were seeded at 50 μl (2.5×10^4 cells and 1×10^4 cells, respectively) per well, and then incubated in a CO2 incubator (37° C., 5% CO2) for 48 hours. Ten (10) μ1 each of cell proliferation reagent WST-1 (Roche) was added to each well after incubation, and then the resultants were mixed by lightly tapping the plate, followed by 1 hour of reaction in the CO2 incubator. Subsequently, the plate was shaken with a plate reader for 1 minute, and then absorbance was measured at 450 nm. At this time, absorbance was also measured at 595 nm as a reference wavelength. The net absorbance was obtained by subtracting the absorbance at the reference wavelength from the absorbance at 450 nm.
# [3] = test system: HT-29 (human colon adenocarcinoma cells); assay: WST-1 proliferation assay (Example 10), HT-29; type: cell-based; details: WST-1, 48 hours
# Description: (§2) Cancer cells used herein were KMS34 (human myeloma cells), HeLa (human cervical cancer cells), HCT116 (human colon cancer cells; p53+/+), KATOIII (human stomach cancer cells), MDA-MB-231 (human breast cancer cells), HT-29 (human colon adenocarcinoma cells), PANC-1 (human pancreatic cancer cells), and Li-7 (human liver cancer cells). Proliferation assay of various cancer cells was performed by the WST-1 method (Cook, J A. & Mitchell, J B., Anal. Biochem., 179, 1-7, 1984) as follows. One μ1 each of PEG11(E)-TC11 and PEG11(O)-TC11 prepared in advance at target concentrations was added into each well of a 96-well microplate. Medium was added to the wells at 50 μl per well, and then mixed by tapping lightly the plate. Subsequently, KMS34 was prepared at a concentration of 5×10^5 cells/ml, and cells other than KMS34 were prepared at a concentration of 2×10^5 cells/ml. Cells were seeded at 50 μl per well (2.5×10^4 cells, 1×10^4 cells), and then incubated in a CO2 incubator (37° C., 5% CO2) for 48 hours. […] Subsequently, the plate was shaken with a plate reader for 1 minute, and then absorbance was measured at 450 nm. At this time, absorbance was also measured at 595 nm as a reference wavelength. The net absorbance was obtained by subtracting the absorbance at the reference wavelength from the absorbance at 450 nm.
# [4] = test system: high-risk MM cells (KMS34); assay: WST-1 proliferation assay (Example 11), KMS34; type: cell-based, human; details: WST-1, 48 hours, FIG. 6
# Description: as §1
# [5] = test system: KATOIII (human stomach cancer cells); assay: WST-1 proliferation assay (Example 10), KATOIII; type: cell-based; details: KATO III, WST-1, 48 hours
# Description: as §2
# [6] = test system: PANC-1 (human pancreatic cancer cells); assay: WST-1 proliferation assay (Example 10), PANC-1; type: cell-based; details: WST-1, 48 hours
# Description: as §2
# [7] = test system: KMS34 (human myeloma cells); assay: WST-1 proliferation assay (Example 10), KMS34; type: cell-based; details: KMS-34, WST-1, 48 hours
# Description: Cancer cells used herein were KMS34 (human myeloma cells), HeLa (human cervical cancer cells), HCT116 (human colon cancer cells; p53+/+), KATOIII (human stomach cancer cells), MDA-MB-231 (human breast cancer cells), HT-29 (human colon adenocarcinoma cells), PANC-1 (human pancreatic cancer cells), and Li-7 (human liver cancer cells). Proliferation assay of various cancer cells was performed by the WST-1 method (Cook, J A. & Mitchell, J B., Anal. Biochem., 179, 1-7, 1984) as follows. One μ1 each of PEG11(E)-TC11 and PEG11(O)-TC11 prepared in advance at target concentrations was added into each well of a 96-well microplate. Medium was added to the wells at 50 μl per well, and then mixed by tapping lightly the plate. Subsequently, KMS34 was prepared at a concentration of 5×10^5 cells/ml, and cells other than KMS34 were prepared at a concentration of 2×10^5 cells/ml. Cells were seeded at 50 μl per well (2.5×10^4 cells, 1×10^4 cells), and then incubated in a CO2 incubator (37° C., 5% CO2) for 48 hours. Ten μ1 each of cell proliferation reagent WST-1 (Roche) was added to each well after incubation, and then the resultants were mixed by lightly tapping the plate, followed by 1 hour of reaction in the CO2 incubator. Subsequently, the plate was shaken with a plate reader for 1 minute, and then absorbance was measured at 450 nm. At this time, absorbance was also measured at 595 nm as a reference wavelength. The net absorbance was obtained by subtracting the absorbance at the reference wavelength from the absorbance at 450 nm.
# [8] = test system: HeLa (human cervical cancer cells); assay: WST-1 proliferation assay (Example 10), HeLa; type: cell-based; details: WST-1, 48 hours
# Description: as §2
SMILES,Residual drug within the abdominal cavity [1],Stability in mouse blood [1],Proliferation inhibitory activity against bone marrow stromal cell-derived normal cells (WT) [2],IC50 [3] [µM],Proliferation inhibitory activity against high-risk MM cells (KMS34) [4],IC50 [5] [µM],IC50 [6] [µM],IC50 [7] [µM],IC50 [8] [µM]
COCCOCCOCCOCCOCCOCCOCCOCCOCCOCCOCCOCCC(=O)OCCOc1cc2c(cc1N)C(=O)N(c1c(C(C)C)cccc1C(C)C)C2=O [PEG11(E)-TC11],no residual drug was observed,"quickly hydrolyzed with esterase in blood, and converted to HOEtO-TC11",no proliferation inhibitory activity,20.5,significant proliferation inhibitory activity,7.9,14,0.67,5.4
"CC(C)c1cccc(C(C)C)c1N1C(=O)c2ccc(N)cc2C1=O [TC11, 2-(2,6-di-isopropylphenyl)-5-amino-1H-isoindole-1,3-dione, reference compound]",,,no proliferation inhibitory activity,,significant proliferation inhibitory activity,,,2.6,
COCCOCCOCCOCCOCCOCCOCCOCCOCCOCCOCCOCCOc1cc2c(cc1N)C(=O)N(c1c(C(C)C)cccc1C(C)C)C2=O [PEG11(O)-TC11],no residual drug was observed,not degraded with esterase in blood,,11.4,,21,75,16,18.1

# Source: patent publication US20190315775A1, “MODIFIED […] AND PHARMACEUTICAL COMPOSITION HAVING SAME AS ACTIVE INGREDIENT” (KEIO UNIVERSITY, priority 2016, published 2019)
